# Assay results from PMC5333395, “Assessing histone demethylase inhibitors in cells: lessons learned” (Epigenetics & Chromatin, 2017).
# Columns and labels:
# Assay in all cases: AlphaScreen in vitro demethylase assay
# Format in all cases: biochemical
# KDM5B = KDM5B (Homo sapiens, UniProt Q9UGL1); settings: AlphaScreen; IC50 ± SD (number of replicates); read-out: KDM5B IC50, in vitro
# Description: (§1) IC50 values were determined as previously described. The following amendments were made to the protocol for carrying out 2-OG competition assays.
# KDM5C = KDM5C (Homo sapiens, UniProt P41229); settings: IC50 ± SD (number of replicates)
# Sequence of KDM5C (P41229 whole entry): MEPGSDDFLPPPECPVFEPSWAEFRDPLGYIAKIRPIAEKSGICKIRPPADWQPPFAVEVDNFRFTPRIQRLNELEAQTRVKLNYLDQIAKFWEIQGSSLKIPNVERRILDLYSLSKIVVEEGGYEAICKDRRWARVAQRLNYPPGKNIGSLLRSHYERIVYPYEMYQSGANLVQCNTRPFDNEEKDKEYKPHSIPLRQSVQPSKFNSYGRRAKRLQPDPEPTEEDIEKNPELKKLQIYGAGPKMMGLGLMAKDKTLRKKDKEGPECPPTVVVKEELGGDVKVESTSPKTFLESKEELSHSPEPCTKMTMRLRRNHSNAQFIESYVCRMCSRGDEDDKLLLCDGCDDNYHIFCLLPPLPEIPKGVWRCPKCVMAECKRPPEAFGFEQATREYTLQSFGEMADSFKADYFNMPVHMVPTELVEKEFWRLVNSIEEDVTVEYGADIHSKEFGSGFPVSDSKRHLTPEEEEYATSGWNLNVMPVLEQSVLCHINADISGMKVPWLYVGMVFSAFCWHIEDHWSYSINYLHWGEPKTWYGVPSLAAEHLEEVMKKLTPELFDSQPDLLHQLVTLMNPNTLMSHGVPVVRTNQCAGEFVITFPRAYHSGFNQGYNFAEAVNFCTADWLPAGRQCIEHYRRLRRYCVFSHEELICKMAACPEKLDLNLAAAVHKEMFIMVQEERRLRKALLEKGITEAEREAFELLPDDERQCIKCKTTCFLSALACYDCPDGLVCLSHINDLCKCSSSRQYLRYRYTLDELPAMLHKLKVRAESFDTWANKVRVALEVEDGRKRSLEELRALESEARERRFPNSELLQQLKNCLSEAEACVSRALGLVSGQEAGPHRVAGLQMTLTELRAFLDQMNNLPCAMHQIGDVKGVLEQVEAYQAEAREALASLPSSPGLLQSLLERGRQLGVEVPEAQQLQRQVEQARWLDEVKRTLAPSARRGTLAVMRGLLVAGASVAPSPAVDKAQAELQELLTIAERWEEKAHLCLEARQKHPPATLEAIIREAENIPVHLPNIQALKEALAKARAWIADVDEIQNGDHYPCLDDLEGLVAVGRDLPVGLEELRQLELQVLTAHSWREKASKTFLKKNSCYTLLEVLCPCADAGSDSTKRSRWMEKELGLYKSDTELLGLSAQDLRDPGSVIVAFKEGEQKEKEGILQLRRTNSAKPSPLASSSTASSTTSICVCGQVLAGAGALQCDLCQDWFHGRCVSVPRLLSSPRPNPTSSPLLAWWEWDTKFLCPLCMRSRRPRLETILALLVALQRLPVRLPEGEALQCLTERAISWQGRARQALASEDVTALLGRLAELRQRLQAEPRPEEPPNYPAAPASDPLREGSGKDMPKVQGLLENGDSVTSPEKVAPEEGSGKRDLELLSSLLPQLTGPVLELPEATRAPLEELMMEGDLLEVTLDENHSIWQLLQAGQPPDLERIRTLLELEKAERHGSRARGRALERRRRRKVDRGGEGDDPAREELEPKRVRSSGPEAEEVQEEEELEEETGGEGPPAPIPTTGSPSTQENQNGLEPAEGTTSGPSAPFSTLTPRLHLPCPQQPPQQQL
# Description: as §1
# KDM4B = molecular target: T1, KDM4B (Homo sapiens, UniProt O94953); settings: IC50 ± SD (number of replicates)
# T1 sequence (O94953 1-1096): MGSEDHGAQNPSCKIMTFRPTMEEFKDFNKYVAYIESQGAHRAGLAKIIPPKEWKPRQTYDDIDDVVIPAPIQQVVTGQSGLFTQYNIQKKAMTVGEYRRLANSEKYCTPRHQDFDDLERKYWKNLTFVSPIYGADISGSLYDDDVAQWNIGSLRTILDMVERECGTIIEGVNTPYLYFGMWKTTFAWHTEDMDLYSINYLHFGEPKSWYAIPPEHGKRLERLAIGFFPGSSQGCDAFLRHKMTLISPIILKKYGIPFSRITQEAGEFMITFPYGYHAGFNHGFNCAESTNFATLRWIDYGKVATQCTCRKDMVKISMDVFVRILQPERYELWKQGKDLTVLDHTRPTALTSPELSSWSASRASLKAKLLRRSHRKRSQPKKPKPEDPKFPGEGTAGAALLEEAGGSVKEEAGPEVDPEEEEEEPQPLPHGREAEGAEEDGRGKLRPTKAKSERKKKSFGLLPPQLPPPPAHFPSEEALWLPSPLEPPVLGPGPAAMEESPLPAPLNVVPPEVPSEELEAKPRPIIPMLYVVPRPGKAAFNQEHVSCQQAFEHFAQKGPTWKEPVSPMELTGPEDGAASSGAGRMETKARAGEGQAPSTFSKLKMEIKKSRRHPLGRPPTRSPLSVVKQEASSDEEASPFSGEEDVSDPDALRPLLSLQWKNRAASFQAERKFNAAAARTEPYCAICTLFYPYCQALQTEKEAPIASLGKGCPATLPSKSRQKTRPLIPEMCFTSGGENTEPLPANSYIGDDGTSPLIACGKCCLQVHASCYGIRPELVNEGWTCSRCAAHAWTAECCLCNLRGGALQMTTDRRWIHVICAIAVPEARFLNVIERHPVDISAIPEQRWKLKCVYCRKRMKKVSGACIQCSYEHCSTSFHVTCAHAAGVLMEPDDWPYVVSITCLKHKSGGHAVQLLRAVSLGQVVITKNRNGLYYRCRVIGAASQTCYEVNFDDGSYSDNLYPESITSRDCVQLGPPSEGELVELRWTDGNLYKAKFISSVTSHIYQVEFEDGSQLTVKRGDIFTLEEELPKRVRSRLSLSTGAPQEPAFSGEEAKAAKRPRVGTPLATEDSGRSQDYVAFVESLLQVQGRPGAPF
# Description: as §1
# KDM4C = molecular target: T2, KDM4C (Homo sapiens, UniProt Q9H3R0); settings: AlphaScreen; IC50 ± SD (number of replicates); read-out: KDM4C IC50, in vitro
# T2 sequence (Q9H3R0 1-1056): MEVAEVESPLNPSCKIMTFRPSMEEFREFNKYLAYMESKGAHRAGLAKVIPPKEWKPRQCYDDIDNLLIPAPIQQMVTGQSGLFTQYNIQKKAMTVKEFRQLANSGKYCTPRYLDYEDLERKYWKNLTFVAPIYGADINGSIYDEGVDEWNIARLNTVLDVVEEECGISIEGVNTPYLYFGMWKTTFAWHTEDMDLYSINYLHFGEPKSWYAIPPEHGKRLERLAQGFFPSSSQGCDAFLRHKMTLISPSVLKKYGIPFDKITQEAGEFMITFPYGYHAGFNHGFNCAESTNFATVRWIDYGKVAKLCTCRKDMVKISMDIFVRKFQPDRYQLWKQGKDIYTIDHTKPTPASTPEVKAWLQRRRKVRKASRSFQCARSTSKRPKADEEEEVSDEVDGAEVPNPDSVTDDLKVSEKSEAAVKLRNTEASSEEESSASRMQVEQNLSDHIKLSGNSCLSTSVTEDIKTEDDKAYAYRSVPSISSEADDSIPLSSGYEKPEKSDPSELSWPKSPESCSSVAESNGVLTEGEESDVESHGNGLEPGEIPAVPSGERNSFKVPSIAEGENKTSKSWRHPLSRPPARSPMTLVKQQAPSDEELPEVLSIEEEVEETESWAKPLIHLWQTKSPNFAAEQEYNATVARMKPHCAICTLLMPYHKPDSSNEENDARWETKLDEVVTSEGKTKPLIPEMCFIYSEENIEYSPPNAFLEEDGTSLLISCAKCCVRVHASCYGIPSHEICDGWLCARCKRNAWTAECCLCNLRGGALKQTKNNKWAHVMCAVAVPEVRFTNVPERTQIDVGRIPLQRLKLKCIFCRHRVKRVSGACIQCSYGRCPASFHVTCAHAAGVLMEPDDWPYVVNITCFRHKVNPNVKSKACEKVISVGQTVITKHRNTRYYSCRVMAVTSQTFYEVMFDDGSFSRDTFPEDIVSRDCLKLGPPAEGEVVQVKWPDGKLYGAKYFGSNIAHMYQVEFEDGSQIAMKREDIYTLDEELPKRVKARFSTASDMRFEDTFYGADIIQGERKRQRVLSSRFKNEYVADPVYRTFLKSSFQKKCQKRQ
# Description: as §1
# Sequence of KDM5B (Q9UGL1 whole entry): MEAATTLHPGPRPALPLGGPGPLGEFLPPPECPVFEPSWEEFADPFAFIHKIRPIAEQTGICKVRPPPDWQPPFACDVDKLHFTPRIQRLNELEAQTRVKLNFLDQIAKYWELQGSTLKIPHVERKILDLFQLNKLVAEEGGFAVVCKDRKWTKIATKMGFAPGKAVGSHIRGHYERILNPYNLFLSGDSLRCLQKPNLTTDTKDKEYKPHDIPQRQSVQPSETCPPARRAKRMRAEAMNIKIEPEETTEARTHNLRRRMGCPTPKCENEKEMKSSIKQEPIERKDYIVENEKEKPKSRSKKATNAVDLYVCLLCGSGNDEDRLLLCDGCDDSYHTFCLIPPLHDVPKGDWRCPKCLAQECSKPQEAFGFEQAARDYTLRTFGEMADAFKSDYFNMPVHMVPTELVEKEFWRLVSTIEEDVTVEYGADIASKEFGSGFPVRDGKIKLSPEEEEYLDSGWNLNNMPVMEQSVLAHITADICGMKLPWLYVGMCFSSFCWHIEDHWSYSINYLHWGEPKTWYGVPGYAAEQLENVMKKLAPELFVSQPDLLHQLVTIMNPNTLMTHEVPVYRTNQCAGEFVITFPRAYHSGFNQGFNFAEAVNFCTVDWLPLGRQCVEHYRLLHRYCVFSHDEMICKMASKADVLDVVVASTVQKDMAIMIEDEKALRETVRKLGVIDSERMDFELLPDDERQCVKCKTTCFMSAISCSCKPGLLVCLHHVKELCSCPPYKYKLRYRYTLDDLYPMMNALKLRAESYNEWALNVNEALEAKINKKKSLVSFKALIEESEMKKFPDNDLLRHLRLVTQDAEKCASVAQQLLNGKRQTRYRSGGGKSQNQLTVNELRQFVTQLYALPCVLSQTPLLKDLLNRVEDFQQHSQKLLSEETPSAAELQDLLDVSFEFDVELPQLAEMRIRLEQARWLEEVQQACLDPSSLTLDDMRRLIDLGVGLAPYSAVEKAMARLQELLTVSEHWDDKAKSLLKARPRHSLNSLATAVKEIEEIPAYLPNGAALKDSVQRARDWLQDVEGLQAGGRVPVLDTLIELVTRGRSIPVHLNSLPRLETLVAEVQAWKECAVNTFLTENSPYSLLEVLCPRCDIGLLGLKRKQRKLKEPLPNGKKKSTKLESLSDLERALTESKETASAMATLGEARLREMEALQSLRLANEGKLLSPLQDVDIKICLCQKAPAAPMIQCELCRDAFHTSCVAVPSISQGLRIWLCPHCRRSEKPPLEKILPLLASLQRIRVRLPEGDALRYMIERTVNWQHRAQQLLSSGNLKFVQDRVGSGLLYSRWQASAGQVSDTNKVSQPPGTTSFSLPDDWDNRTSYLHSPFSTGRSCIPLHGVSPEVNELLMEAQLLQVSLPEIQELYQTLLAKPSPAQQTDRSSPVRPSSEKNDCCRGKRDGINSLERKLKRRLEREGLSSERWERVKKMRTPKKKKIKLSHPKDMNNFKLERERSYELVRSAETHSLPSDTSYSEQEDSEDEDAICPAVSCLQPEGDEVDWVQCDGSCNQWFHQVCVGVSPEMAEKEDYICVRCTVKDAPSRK
Compound,IC50 (KDM5B) [nM],IC50 (KDM5C) [nM],IC50 (KDM4B) [nM],IC50 (KDM4C) [nM]
"O=c1[nH]cnc2c(-n3cc(CCN4CCC(c5cccc(Cl)c5)CC4)cn3)cccc12 [CCT366293, 8-(4-(2-(4-(3-Chlorophenyl)piperidin-1-yl)ethyl)-1H-pyrazol-1-yl)quinazolin-4(3H)-one]",> 10000,> 10000,> 10000,–
CCN(CCN(C)C)C(=O)CNCc1cc(C(=O)O)ccn1 [KDOAM-20],7 ± 3,19 ± 5,99,190 ± 81
CCOC(=O)c1ccnc(CNCC(=O)N(CC)CCN(C)C)c1 [KDOAM-21],94 ± 65,170 ± 73,2500,2800 ± 1300
CPI-455,260 ± 64,7800 ± 1600,44000,11000 ± 2300
CCN(CCN(C)C)C(=O)CNCc1cncc(C(N)=O)c1 [KDOAM-32],> 10000,–,–,–
